# Values of other authors as cited in patent US10729793B2, “Method for imaging arthritis” (GUY'S AND ST THOMAS' HOSPITAL NHS FOUNDATION TRUST, priority 2015, dated 2020).
# *1 amine or outer side, *2 acyl side, *3 side chain or, on linkers, in order; H or OH if unused. Where a SMILES comes first, the peptide text is derived from it. Bridges are numbered along the chain shown (N, C = ends). Side-chain parts run from the residue outwards. The star is where a group is joined. X1 = C/C(=N/O)C(C)(C)NCCC(CCNC(C)(C)/C(C)=N\O)CCN*; Glutaryl = O=C(CCCC(=O)[*:2])[*:1]; X2 = NC(=O)COCC(=O)NCCOCCOCCOCCN*
# Key:
# [1] = healthy volunteers
# αvβ3 integrin = αvβ3 integrin (Homo sapiens, UniProt P05106+P06756); settings: in vitro studies
# [2] = 10 subjects, at 4 months
# αvβ3 integrin, sequence (P06756 31-889 limits assumed): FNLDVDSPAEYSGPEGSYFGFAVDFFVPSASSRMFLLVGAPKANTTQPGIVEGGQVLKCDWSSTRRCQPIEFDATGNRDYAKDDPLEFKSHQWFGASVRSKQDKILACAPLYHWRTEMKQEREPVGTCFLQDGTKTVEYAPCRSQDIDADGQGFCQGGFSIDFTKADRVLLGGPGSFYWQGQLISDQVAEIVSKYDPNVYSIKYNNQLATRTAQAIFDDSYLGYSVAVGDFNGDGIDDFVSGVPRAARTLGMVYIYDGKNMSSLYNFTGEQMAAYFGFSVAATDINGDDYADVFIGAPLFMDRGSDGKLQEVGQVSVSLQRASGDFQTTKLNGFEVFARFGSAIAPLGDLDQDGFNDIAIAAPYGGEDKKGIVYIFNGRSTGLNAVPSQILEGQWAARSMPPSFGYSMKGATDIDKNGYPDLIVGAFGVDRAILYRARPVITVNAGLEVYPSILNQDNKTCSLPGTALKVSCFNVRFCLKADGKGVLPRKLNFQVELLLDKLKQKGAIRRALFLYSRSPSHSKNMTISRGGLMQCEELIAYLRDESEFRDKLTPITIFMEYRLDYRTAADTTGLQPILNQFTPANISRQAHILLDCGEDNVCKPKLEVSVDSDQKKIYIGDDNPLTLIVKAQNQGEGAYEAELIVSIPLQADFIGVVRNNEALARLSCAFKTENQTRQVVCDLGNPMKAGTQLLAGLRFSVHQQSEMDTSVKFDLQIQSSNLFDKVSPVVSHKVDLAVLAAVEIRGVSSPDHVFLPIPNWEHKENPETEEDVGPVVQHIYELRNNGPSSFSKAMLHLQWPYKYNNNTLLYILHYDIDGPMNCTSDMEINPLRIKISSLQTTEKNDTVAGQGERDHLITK
# αvβ3 integrin, sequence (P06756 891-1048 partner limits assumed): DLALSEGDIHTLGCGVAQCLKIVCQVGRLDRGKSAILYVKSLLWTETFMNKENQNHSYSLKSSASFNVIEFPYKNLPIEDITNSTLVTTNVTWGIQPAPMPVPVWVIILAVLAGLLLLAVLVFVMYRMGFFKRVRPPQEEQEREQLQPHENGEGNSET
# αvβ3 integrin, sequence (P05106 27-788): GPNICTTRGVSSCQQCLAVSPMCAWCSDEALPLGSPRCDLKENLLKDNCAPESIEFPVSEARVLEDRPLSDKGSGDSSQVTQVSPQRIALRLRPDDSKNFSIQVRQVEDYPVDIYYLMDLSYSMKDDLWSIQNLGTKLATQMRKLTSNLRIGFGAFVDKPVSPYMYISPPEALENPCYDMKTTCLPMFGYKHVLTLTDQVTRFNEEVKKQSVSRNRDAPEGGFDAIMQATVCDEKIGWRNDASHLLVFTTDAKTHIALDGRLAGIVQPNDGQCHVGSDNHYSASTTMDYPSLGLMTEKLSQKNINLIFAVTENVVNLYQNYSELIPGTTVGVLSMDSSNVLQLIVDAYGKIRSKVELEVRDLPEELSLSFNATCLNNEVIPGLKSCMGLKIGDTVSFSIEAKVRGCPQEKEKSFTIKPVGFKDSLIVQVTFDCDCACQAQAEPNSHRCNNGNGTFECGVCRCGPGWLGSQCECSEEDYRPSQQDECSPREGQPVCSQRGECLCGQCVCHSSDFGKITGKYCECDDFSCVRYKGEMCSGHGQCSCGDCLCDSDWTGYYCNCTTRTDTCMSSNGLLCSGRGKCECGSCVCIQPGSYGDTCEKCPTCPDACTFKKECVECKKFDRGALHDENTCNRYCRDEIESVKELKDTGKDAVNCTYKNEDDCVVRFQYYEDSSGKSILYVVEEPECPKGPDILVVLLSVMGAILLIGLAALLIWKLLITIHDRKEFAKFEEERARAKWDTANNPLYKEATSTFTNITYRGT
compound,measurement,setting,value
"C/C(=N/O)C(C)(C)NCCC(CCNC(=O)CCCC(=O)NCCCC[C@@H]1NC(=O)CSC[C@@H](C(=O)NCCOCCOCCOCCNC(=O)COCC(N)=O)NC(=O)[C@H](Cc2ccccc2)NC(=O)[C@@H]2CSSC[C@H](NC1=O)C(=O)N[C@@H](CCCNC(=N)N)C(=O)NCC(=O)N[C@@H](CC(=O)O)C(=O)N2)CCNC(C)(C)/C(C)=N\O (stereo partly drawn) [NC100692, maraciclatide] ({CH2CO}-K([Glutaryl-X1])CRGDCFC-X2; disulfide 2-6; thioether N-8)",mean elimination half-life,[1],approximately one
same,binding affinity for the αvβ3 integrin,αvβ3 integrin,high binding affinity
same,antibodies to the peptide (immunogenicity),[2],no detectable antibodies
